Experimental data reported in patent publication EP4023291A1, “FAT METABOLISM PROMOTER” (Asahi Group Holdings, Ltd., priority 2019, dated 2021).

Assays:
3T3-L1 cells = assay: Test 4: lipolysis test, glycerol released into culture supernatant of differentiated adipocytes; assay type: cell-based, Mouse; settings: for amount of released glycerol, comparison with control: against Comparative Example 4 (0.1% ethanol), one-way ANOVA, Dunnett's test; for control ratio: amount of glycerol relative to medium of Comparative Example 4, Average: culture 2 days, 0.1% ethanol, 0.1 µM noradrenaline, ethyl caproate 0/0.1/1/10 ppm in Comparative Example 5/Examples 6/7/8
Method: In the present test, the lipolysis-promoting effect of the promoter of the present embodiment was tested by quantifying glycerol released into culture supernatant through decomposition of fat accumulated in adipocytes. Mouse embryonic 3T3-L1 cells, which are progenitor cells of adipocytes and were used in the present test, were induced to differentiate to form adipocytes. The present test was carried out in accordance with a method described in "Effects of Quercetin Glucosides on Dietinduced Obesity in Mice - The Lipolytic Activity of Quercetin -" (Tateishi et al., Japanese Pharmacology & Therapeutics 2009; 37(2): 123-131). The specific testing method of the present test and the results of the test are shown in the following.
In the present test, first, 3T3-L1 cells were suspended in Dulbecco's Modified Eagle medium (manufactured by FUJIFILM Wako Pure Chemical Corporation) (hereinafter, also referred to as "DMEM medium") to which penicillin-streptomycin (manufactured by Thermo Fisher Scientific, Inc.) and fetal bovine serum (manufactured by Sigma-Aldrich Co. LLC) had been added to reach concentrations of 100 Unit/mL, 100 µg/mL, and 10%, respectively, and seeded in a 12-well plate.
The 3T3-L1 cells were cultured under conditions of 5% CO2 and 37°C until the cells became confluent (a state in which cells are totally covering the surface of a culture vessel). Two days after becoming confluent, the medium was exchanged with a medium obtained by adding dexamethasone (manufactured by NACALAI TESQUE, INC.), 3-isobutyl-1-methylxanthine (manufactured by NACALAI TESQUE, INC.), and insulin (manufactured by NACALAI TESQUE, INC.) to DMEM medium to reach concentrations of 0.25 µM, 0.5 mM, and 10 µg/mL, respectively. Thereafter, the 3T3-L1 cells were cultured at 5% CO2 and 37°C for 2 days to induce the cells to differentiate into adipocytes.
After the induction of differentiation, medium exchange with a medium obtained by adding insulin to DMEM medium to reach a concentration of 5 µg/mL was performed every 2 or 3 days, and differentiation was maintained by culturing at 5% CO2 and 37°C for 12 days in total. Thereafter, a medium is prepared as a test medium by adding penicillin-streptomycin (manufactured by Thermo Fisher Scientific, Inc.) and fetal bovine serum (manufactured by Sigma-Aldrich Co. LLC) to DMEM medium free of phenol red (1.0 g/L glucose) (manufactured by NACALAI TESQUE, INC.) to reach concentrations of 100 Unit/mL, 100 µg/mL, and 10%, respectively, and components shown in Table 4 were added to the test medium to reach concentrations shown in Table 4. The medium for the 3T3-L1 cells after induction of differentiation was exchanged with a medium to which components of any of Comparative Examples 4, 5 or Examples 6 to 8 had been added, and the 3T3-L1 cells were cultured at 5% CO2 and 37°C for 2 days.
Ethyl caproate manufactured by Tokyo Chemical Industry Co., Ltd. was used for the ethyl caproate, ethanol manufactured by FUJIFILM Wako Pure Chemical Corporation was used for the ethanol, and noradrenaline manufactured by NACALAI TESQUE, INC. was used for the noradrenaline.
After culturing for 2 days, the culture supernatant was collected, and glycerol released into the culture supernatant was quantified with a Glycerol Assay kit (Cell-Based) (manufactured by Abcam). The ratio of the amount of glycerol in each medium to which the components of any of Comparative Example 5 and Examples 6 to 8 had been added relative to the amount of glycerol in the medium to which the component of Comparative Example 4 had been added (hereinafter, referred to as "control ratio") was determined to obtain the average ± standard error.
In the present test, statistical test was carried out by multiple comparison test with one-way analysis of variance (one-way ANOVA) followed by Dunnett's test. Significance levels of p < 0.05 were each determined to be a significant difference. These analyses were all performed with SPSS version 23 (manufactured by SPSS).

TRPA1 = molecular target: T1, TRPA1 (Homo sapiens, UniProt O75762); assay: Test 5: TRPA1 activity test, calcium imaging in cells with forced expression of TRPA1; assay type: cell-based
T1 construct: expressed in transfected cells; host or cells: HEK293T cells, transient transfection with Lipofectamine 2000
Method: In the present test, the contribution of the lipid metabolism promoter of the present embodiment to TRPA1 activity was examined by checking the activation of the temperature-sensitive ion channel TRPA1 with a calcium imaging method. The specific testing method of the present test and the results of the test are shown in the following. […]
(§1) Ethyl caproate was added to HEPES buffer (10 mM HEPES, 130 mM NaCl, 5 mM KCl, 10 mM glucose, 2 mM CaCl2·2H2O, 1.2 mM MgCl2·6H2O, pH = 7.40), and thus a test solution of Example 9 containing ethyl caproate in a concentration of 255 ppm was obtained. […] Measurement of fluorescence intensity for the cells with forced expression of TRPA1 was initiated, and, 20 seconds thereafter, 50-µL portions of each of the test solutions prepared were added to three wells. After the lapse of a predetermined period of time, the measurement of fluorescence intensity was completed, and ratios of fluorescence intensity at each time after addition of a test solution as the average of fluorescence intensity before addition of a test solution was assumed as 1 (hereinafter, also referred to as "RFU (relative fluorescence units)") were determined from measurements of fluorescence intensity. Further, change rates in RFU before and after addition of a test solution (hereinafter, also referred to as "ΔRFU") were determined at each time after addition of a test solution. […]

[1] = test system: HEK293T cells without transfer of the TRPA1 gene; assay: Test 5: TRPA1 activity test, reference in non-transformed cells; assay type: cell-based, human; settings: ethyl caproate 255 ppm test solution, 100 ppm in well
Method: In the present test, first, human embryonic HEK293T cells were first suspended in DMEM medium to which penicillin-streptomycin (manufactured by Thermo Fisher Scientific, Inc.) and fetal bovine serum (manufactured by Sigma-Aldrich Co. LLC) were added to reach concentrations of 100 Unit/mL, 100 µg/mL, and 10%, respectively, seeded in a 96-well plate at a volume of 100 µL/well, and cultured under conditions of 5% CO2 and 37°C until a cell density reached 70 to 90%.
as §1, with “intensity.” for “intensity. Further, change rates in RFU before and after addition of a test solution (hereinafter, also referred to as "ΔRFU") were determined at each time after addition of a test solution.”

T1 sequence (O75762 whole entry): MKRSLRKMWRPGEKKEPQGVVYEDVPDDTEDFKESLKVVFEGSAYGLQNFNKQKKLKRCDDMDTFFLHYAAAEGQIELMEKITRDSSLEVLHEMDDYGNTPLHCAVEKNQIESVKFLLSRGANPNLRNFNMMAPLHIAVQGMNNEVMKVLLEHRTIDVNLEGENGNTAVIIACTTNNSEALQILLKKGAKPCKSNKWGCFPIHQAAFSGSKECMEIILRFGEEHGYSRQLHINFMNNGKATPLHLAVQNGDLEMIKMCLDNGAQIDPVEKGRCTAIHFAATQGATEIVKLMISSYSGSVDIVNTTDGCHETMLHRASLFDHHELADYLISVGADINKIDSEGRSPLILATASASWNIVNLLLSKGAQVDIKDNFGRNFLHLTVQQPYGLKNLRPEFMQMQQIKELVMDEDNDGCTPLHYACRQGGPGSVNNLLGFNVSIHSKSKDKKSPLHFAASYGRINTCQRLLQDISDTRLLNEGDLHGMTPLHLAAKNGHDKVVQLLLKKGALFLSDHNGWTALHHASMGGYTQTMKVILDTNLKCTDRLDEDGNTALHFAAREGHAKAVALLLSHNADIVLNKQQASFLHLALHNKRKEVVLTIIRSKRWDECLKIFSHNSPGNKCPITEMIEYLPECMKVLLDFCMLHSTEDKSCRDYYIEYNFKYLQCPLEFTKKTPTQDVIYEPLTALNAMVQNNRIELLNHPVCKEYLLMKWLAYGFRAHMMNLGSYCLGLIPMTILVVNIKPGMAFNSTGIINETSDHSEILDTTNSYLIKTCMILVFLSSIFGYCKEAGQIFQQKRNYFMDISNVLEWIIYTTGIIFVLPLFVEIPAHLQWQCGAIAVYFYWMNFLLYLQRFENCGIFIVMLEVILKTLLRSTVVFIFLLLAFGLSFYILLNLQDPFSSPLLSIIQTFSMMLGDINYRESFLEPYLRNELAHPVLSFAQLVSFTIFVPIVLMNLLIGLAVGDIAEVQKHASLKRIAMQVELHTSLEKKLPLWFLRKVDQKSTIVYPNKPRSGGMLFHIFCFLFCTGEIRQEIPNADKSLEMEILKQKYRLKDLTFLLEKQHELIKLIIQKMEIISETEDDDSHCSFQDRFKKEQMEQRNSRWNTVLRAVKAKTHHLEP

Which results are given for `CCCCCC(=O)OCC` [Example 8, Ethyl caproate]?
amount of released glycerol, comparison with control (3T3-L1 cells): significant increase in the amount of released glycerol; control ratio: amount of glycerol relative to medium of Comparative Example 4, Average (3T3-L1 cells): 1.118

`NC[C@H](O)c1ccc(O)c(O)c1` [Comparative Example 5, Noradrenaline, reference compound] was tested. Which “amount of released glycerol, comparison with control” value (3T3-L1 cells) did it give?
Its value is “almost no difference in the amount of released glycerol”.

What about the “control ratio: amount of glycerol relative to medium of Comparative Example 4, Average” value (3T3-L1 cells) of the same molecule?
Its value is 1.002.

Which “cellular response after co-addition of the TRPA1 inhibitor HC03001” value (TRPA1; cells with forced expression of TRPA1, Figure 11) does the source give for `CCCCCC(=O)OCC` [Example 9, Ethyl caproate] here?
The value was “disappeared”.

What about the “cellular response of cells with forced expression of TRPA1” value (TRPA1; ethyl caproate 100 ppm in well, Figures 9 and 10) of the same molecule?
Its value is “evoked cellular response”.

And the “maximum value of ΔRFU after addition of test solution, Average” value [1]?
Its value is 0.046.

How did the “control ratio: amount of glycerol relative to medium of Comparative Example 4, Average” value (3T3-L1 cells) turn out when `CCCCCC(=O)OCC` [Example 6, Ethyl caproate] was run?
The value was 1.063.

With `CCCCCC(=O)OCC` [Example 7, Ethyl caproate] as the molecule, how does the “amount of released glycerol, comparison with control” value (3T3-L1 cells) read?
The value was “increasing tendency in the amount of released glycerol”.

And the “control ratio: amount of glycerol relative to medium of Comparative Example 4, Average” value (3T3-L1 cells)?
Its value is 1.089.
